Assay results from US12447152B2, “Pharmaceutical combination of PRMT5 inhibitors” (Lupin Limited, priority 2019, dated 2025).

Experiments:
[1] = test system: MIA PaCa-2 human pancreatic cancer xenograft; assay: In vivo efficacy study of Compound-24 with Afatinib, MIA PaCa-2 xenograft; parameters: species or system nude mice
Method: Compound-24 (1 mg/kg; b.i.d.), Afatinib (12.5 mg/kg; q.d.) and Compound-24+Afatinib (Compound-24; 1 mg/kg; b.i.d+Afatinib; 12.5 mg/kg; q.d.).

[2] = test system: MIA PaCa-2 human pancreatic cancer xenograft; assay: In vivo efficacy study of Compound-24 with Ulixertinib (BVD-523), MIA PaCa-2 xenograft (tumor fragments); parameters: species or system nude mice; conditions: Compound-24 alone, 1 mg/kg b.i.d.
Method: MIA PaCa-2 tumor fragments were implanted subcutaneously in nude mice. […] Compound-24 (1 mg/kg; b.i.d.), BVD-523 (25 mg/kg; b.i.d.) and Compound-24+BVD-523 (Compound-24; 1 mg/kg; b.i.d+BVD-523; 25 mg/kg; b.i.d.).

[3] = test system: MIA PaCa-2 human pancreatic cancer xenograft; assay: In vivo efficacy study of Compound-24 with BI-3406, MIA PaCa-2 xenograft; conditions: Compound-24 alone, 1 mg/kg; day 15
Text: The tumor-bearing mice were randomized once the tumors reached an average volume of approximately 155-159 mm^3 (Tumor volume range 107-248 mm^3).

CN(C)C/C=C/C(=O)Nc1cc2c(Nc3ccc(F)c(Cl)c3)ncnc2cc1O[C@H]1CCOC1 [Afatinib, (E)-N-(4-(3-chloro-4-fluoroanilino)-7-[(3S)-oxolan-3-yl)oxoquinazolin-6-yl)-4-(dimethylamino)but-2-enamide, reference compound]
% tumor growth inhibition ([1]; Afatinib alone, 12.5 mg/kg q.d.): 58.68±5.14%

Nc1nc2cc(CCC3=C[C@@H](n4ccc5c(N)ncnc54)[C@H](O)[C@@H]3O)cc(F)c2cc1Cl [Compound-24, (1S,2R,5R)-3-(2-(2-Amino-3-chloro-5-fluoroquinolin-7-yl)ethyl)-5-(4-amino-7H-pyrrolo[2,3-d]pyrimidin-7-yl)cyclopent-3-ene-1,2-diol]
% tumor growth inhibition ([1]; Compound-24 alone, 1 mg/kg b.i.d.): 48.03±5.75% | % tumor growth inhibition [2]: 58.83±9.92% | % tumor growth inhibition [3]: 47.88±12.12%
